In patent publication US6753296B1, “Method for improving plant growth” (priority 2002, dated 2004):

How the values were obtained:
Format in all cases: in vivo
Potato = assay: Crop yield of treated potato tubers; settings: potato tubers treated at 500 g per 100 kg seed; harvested at maturity; vs untreated tubers
Procedure: Potato tubers are treated with the composition of the invention containing Imidacloprid, at a rate of 500 g Imidacloprid per 100 kg seed and are planted following procedures which correspond to conditions found in practice. The crop is harvested from the field at maturity. Untreated tubers from the same origin are used for comparison purposes.

[1] = system: Eggplant (Solanum melongena L. cv. Marfa); assay: Vigor of eggplant after drench treatment
Procedure: (§1) Plant are grown in a commercially available pathogen-free soil mixture. 2 weeks (eggplants 3 weeks) after planting seedlings are transplanted into 600 ml pots and drench treated with 10 mg Thiamethoxam in 20 ml water per pot. They were fertilised once or twice a week. Up to 10 weeks after treatment, fresh- and dry-weight of shoots and roots and numbers of leaves are determined. Protein content is measured by the method of Bradford (1976, Anal. Biochem., 72, 248-254) with BSA (bovine serum albumin) as standard: Homogenisation of leaf material in liquid N2 in a mortar. Extraction in phosphate buffer (pH 7.5, 0.1M, 2/1 vol/weight). After centrifugation supematant is separated from pellet and stored at −20° C. until protein determination. For comparison of treated and check, mg proteing/g fresh weight is calculated.
(§2) Tables B2 and B3: Differences between treated plants and Check given as factors (e.g. fresh weight of treated/Fresh weight of check). Factors >1 indicate an enhancement of vigor of treated plants. FW: fresh weight; DW: dry weight; Protein ((mg/g treated plant)/(mg/g check))

Canola = assay: Emergence of canola from treated seed; settings: seed treatment 300 g per 100 kg seed; vs untreated seeds
Procedure: Canola seed is treated with the composition of the invention containing Thiamethoxam, at a rate of 300 g Thiamethoxam per 100 kg seed, and is seeded following procedures which correspond to conditions found in practice. Untreated seeds from the same origin are used for comparison purposes. Emergence (plants per meter) is evaluated. In the case of treated seeds, about 20% more plants per meter emerge that in the case of untreated plants.

[2] = system: Rice (Orvza sativa L. cv. Nihonbare); assay: Vigor of rice after drench treatment
Procedure: as §1, §2

## O=[N+]([O-])NC1=NCCN1Cc1ccc(Cl)nc1 [Imidacloprid]
Potato
  Crop yield: significantly higher

## CN1COCN(Cc2cnc(Cl)s2)/C1=N\[N+](=O)[O-] [Thiamethoxam]
[1]; week 1, drench 10 mg per pot
  Protein ((mg/g treated plant)/(mg/g check)): 1.0
  Root DW (factor treated/check): 1.0
  Root FW (factor treated/check): 1.0
  Shoot DW (factor treated/check): 0.9
  Shoot FW (factor treated/check): 0.9
  Size (factor treated/check): 1.0
[1]; week 2, drench 10 mg per pot
  Protein ((mg/g treated plant)/(mg/g check)): 1.1
  Root DW (factor treated/check): 1.2
  Root FW (factor treated/check): 1.2
  Shoot DW (factor treated/check): 1.1
  Shoot FW (factor treated/check): 0.7
  Size (factor treated/check): 1.1
[1]; week 3, drench 10 mg per pot
  Protein ((mg/g treated plant)/(mg/g check)): 1.0
  Root DW (factor treated/check): 1.1
  Root FW (factor treated/check): 1.1
  Shoot DW (factor treated/check): 1.1
  Shoot FW (factor treated/check): 1.2
  Size (factor treated/check): 1.1
[1]; week 4, drench 10 mg per pot
  Protein ((mg/g treated plant)/(mg/g check)): 1.6
  Root DW (factor treated/check): 1.0
  Root FW (factor treated/check): 1.0
  Shoot DW (factor treated/check): 1.1
  Shoot FW (factor treated/check): 1.1
  Size (factor treated/check): 1.0
[1]; week 5, drench 10 mg per pot
  Leaf No (factor treated/check): 1.1
  Protein ((mg/g treated plant)/(mg/g check)): 1.0
  Root DW (factor treated/check): 1.0
  Root FW (factor treated/check): 0.9
  Shoot DW (factor treated/check): 1.1
  Shoot FW (factor treated/check): 1.0
  Size (factor treated/check): 1.0
[1]; week 6, drench 10 mg per pot
  Leaf No (factor treated/check): 1.3
  Protein ((mg/g treated plant)/(mg/g check)): 1.1
  Root DW (factor treated/check): 0.9
  Root FW (factor treated/check): 0.9
  Shoot DW (factor treated/check): 1.3
  Shoot FW (factor treated/check): 1.3
  Size (factor treated/check): 1.3
[1]; week 7, drench 10 mg per pot
  Leaf No (factor treated/check): 1.3
  Protein ((mg/g treated plant)/(mg/g check)): 1.4
  Root DW (factor treated/check): 0.7
  Root FW (factor treated/check): 0.8
  Shoot DW (factor treated/check): 1.1
  Shoot FW (factor treated/check): 1.1
  Size (factor treated/check): 1.2
[1]; week 8, drench 10 mg per pot
  Leaf No (factor treated/check): 1.2
  Protein ((mg/g treated plant)/(mg/g check)): 1.4
  Root DW (factor treated/check): 0.6
  Root FW (factor treated/check): 0.6
  Shoot DW (factor treated/check): 0.9
  Shoot FW (factor treated/check): 0.7
  Size (factor treated/check): 1.2
[1]; week 9, drench 10 mg per pot
  Leaf No (factor treated/check): 1.6
  Protein ((mg/g treated plant)/(mg/g check)): 2.5
  Root DW (factor treated/check): 1.1
  Root FW (factor treated/check): 0.9
  Shoot DW (factor treated/check): 1.1
  Shoot FW (factor treated/check): 0.7
  Size (factor treated/check): 1.4
[1]; week 10, drench 10 mg per pot
  Leaf No (factor treated/check): 1.4
  Protein ((mg/g treated plant)/(mg/g check)): 1.3
  Root DW (factor treated/check): 1.3
  Root FW (factor treated/check): 1.1
  Shoot DW (factor treated/check): 1.1
  Shoot FW (factor treated/check): 1.1
  Size (factor treated/check): 1.4
Canola
  Emergence (plants per meter), more plants than untreated: about 20%
[2]; week 1, drench 10 mg per pot
  Protein ((mg/g treated plant)/(mg/g check)): 1.1
  Root DW (factor treated/check): 0.8
  Root FW (factor treated/check): 1.0
  Shoot DW (factor treated/check): 1.0
  Shoot FW (factor treated/check): 1.0
  Size (factor treated/check): 1.0
[2]; week 2, drench 10 mg per pot
  Protein ((mg/g treated plant)/(mg/g check)): 1.0
  Root DW (factor treated/check): 1.1
  Root FW (factor treated/check): 0.8
  Shoot DW (factor treated/check): 1.1
  Shoot FW (factor treated/check): 1.0
  Size (factor treated/check): 1.0
[2]; week 3, drench 10 mg per pot
  Protein ((mg/g treated plant)/(mg/g check)): 1.0
  Root DW (factor treated/check): 1.3
  Root FW (factor treated/check): 0.6
  Shoot DW (factor treated/check): 1.3
  Shoot FW (factor treated/check): 1.2
  Size (factor treated/check): 1.0
[2]; week 4, drench 10 mg per pot
  Protein ((mg/g treated plant)/(mg/g check)): 1.0
  Root DW (factor treated/check): 1.4
  Root FW (factor treated/check): 1.5
  Shoot DW (factor treated/check): 1.2
  Shoot FW (factor treated/check): 1.3
  Size (factor treated/check): 1.1
[2]; week 5, drench 10 mg per pot
  Protein ((mg/g treated plant)/(mg/g check)): 1.0
  Root DW (factor treated/check): 0.9
  Root FW (factor treated/check): 1.0
  Shoot DW (factor treated/check): 1.1
  Shoot FW (factor treated/check): 1.2
  Size (factor treated/check): 1.1
[2]; week 6, drench 10 mg per pot
  Protein ((mg/g treated plant)/(mg/g check)): 1.0
  Root DW (factor treated/check): 1.5
  Root FW (factor treated/check): 1.6
  Shoot DW (factor treated/check): 1.1
  Shoot FW (factor treated/check): 1.3
  Size (factor treated/check): 1.2
[2]; week 7, drench 10 mg per pot
  Protein ((mg/g treated plant)/(mg/g check)): 1.1
  Root DW (factor treated/check): 1.3
  Root FW (factor treated/check): 1.3
  Shoot DW (factor treated/check): 1.2
  Shoot FW (factor treated/check): 1.3
  Size (factor treated/check): 1.1
[2]; week 8, drench 10 mg per pot
  Protein ((mg/g treated plant)/(mg/g check)): 1.0
  Root DW (factor treated/check): 1.5
  Root FW (factor treated/check): 1.8
  Shoot DW (factor treated/check): 1.4
  Shoot FW (factor treated/check): 1.4
  Size (factor treated/check): 1.1
[2]; week 9, drench 10 mg per pot
  Protein ((mg/g treated plant)/(mg/g check)): 0.9
  Root DW (factor treated/check): 1.0
  Root FW (factor treated/check): 1.0
  Shoot DW (factor treated/check): 1.2
  Shoot FW (factor treated/check): 1.2
  Size (factor treated/check): 1.2
[2]; week 10, drench 10 mg per pot
  Protein ((mg/g treated plant)/(mg/g check)): 0.7
  Root DW (factor treated/check): 2.0
  Root FW (factor treated/check): 2.0
  Shoot DW (factor treated/check): 1.3
  Shoot FW (factor treated/check): 1.3
  Size (factor treated/check): 1.3
